Measurements taken from PubChem BioAssay AID651547 (The Scripps Research Institute Molecular Screening Center, 2012).
Active and inactive are the calls of the source.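 Rule for the calls: active = potency, meaning EC50, at or under 10 µM; inactive = the rest.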

These compounds were tested against Melanocortin receptor 4 (Homo sapiens) (UniProt P32245) (assay: activators of MC4R Gs-cAMP pathway – cell-based, FRET, agonists, late-stage follow-up (AID 651547)). Details: MC4R-expressing cells, cAMP TR-FRET (LANCE Ultra), agonist.
Melanocortin receptor 4 (Homo sapiens), sequence (P32245 whole entry, looked up): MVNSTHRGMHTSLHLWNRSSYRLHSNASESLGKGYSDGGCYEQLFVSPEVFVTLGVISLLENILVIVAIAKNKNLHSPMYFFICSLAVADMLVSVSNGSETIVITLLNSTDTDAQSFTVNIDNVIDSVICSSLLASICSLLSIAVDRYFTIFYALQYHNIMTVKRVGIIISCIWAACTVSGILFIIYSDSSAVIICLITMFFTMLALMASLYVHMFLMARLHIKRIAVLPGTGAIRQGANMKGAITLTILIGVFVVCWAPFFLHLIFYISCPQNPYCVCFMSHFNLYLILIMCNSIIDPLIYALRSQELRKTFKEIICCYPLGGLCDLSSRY

SMILES | EC50
Cc1ccccc1CN1Cc2cnnn2-c2ccccc2C1C#N (centres undefined) | > 50 µM (inactive)
CCC1CCCCN1S(=O)(=O)c1ccc(NC(=O)c2ccnc(SC)n2)cc1 (centres undefined) | > 50 µM (inactive)
CCC1CCCCN1S(=O)(=O)c1ccc(NC(=O)c2cccc(S(C)(=O)=O)c2)cc1 (centres undefined) | > 50 µM (inactive)
CNC(=O)c1cc(Oc2ccc(NC(=O)CNc3ccc(Cl)c(C(F)(F)F)c3)cc2)ccn1 | > 50 µM (inactive)
CCC1CCCCN1S(=O)(=O)c1ccc(NC(=O)c2ccccc2)cc1 (centres undefined) | > 50 µM (inactive)
C#CC(=O)N(c1ccc(OC)c(OC)c1)C(C(=O)NC1CCCC1)c1cccs1 (centres undefined) | > 50 µM (inactive)
CC(=O)c1ccc(Nc2nc3ccc(C(=O)N(CCC(C)C)CCC(C)C)cc3n2CCCN2CCCCC2)cc1 | > 50 µM (inactive)
COc1ccc(N(C(C)=O)C(C(=O)NC2CCCC2)c2cccs2)cc1OC (centres undefined) | > 50 µM (inactive)
CC1CCCCN1S(=O)(=O)c1ccc(NC(=O)c2nc(S(C)(=O)=O)ncc2Cl)cc1 (centres undefined) | > 50 µM (inactive)
CNC(=O)c1cc(Oc2ccc(NC(=O)Nc3ccc(Cl)c(C(F)(F)F)c3)cc2)ccn1 | > 50 µM (inactive)
CCC1CCCCN1S(=O)(=O)c1ccc(NC(=O)c2nc(S(C)(=O)=O)ncc2Cl)cc1 (centres undefined) | > 50 µM (inactive)
CNC(=O)c1cc(Oc2ccc(NCC(=O)Nc3ccc(Cl)c(C(F)(F)F)c3)cc2)ccn1 | > 50 µM (inactive)
COc1ccccc1C1(CCNC(C)c2cccs2)CCOC(C(C)C)C1 (centres undefined) | > 50 µM (inactive)
O=C1c2cccc3cccc(c23)C(=O)N1CC1CCN(CC(O)COc2ccc3ccccc3c2)CC1 (centres undefined) | > 50 µM (inactive)
